Experimental data from US20090188860A1, “Use of antimicrobials in water technology” (priority 2006, published 2009).

Test system: bacteria
Assay: bacterial presence in permeate and on membrane of a reverse osmosis module in a desalination process
Conditions: cellulose acetate membranes cast with 0.5% and 2.0% by weight of the antimicrobial agent, after a one month period of operation
Method: Cellulose acetate membranes were cast from a dope solution containing about 20% of a cellulose di- and -tri-acetate mixture and 0.5% and 2.0% by weight, respectively, of the antimicrobial agent of formula (3). The solvent is a mixture of dioxane and acetone (2:1; w/w).
Further, the cellulose acetate membranes were used in a reverse osmosis module in a desalination process.
The reverse osmosis module was tested to determine any bacterial presence in the permeate.

## Oc1cc(Cl)ccc1Oc1ccc(Cl)cc1 [formula (3), 4,4′-dichloro-2-hydroxydiphenylether]
  bacterial presence in the permeate and on the membrane: no bacteria could be found
